In US20230312473A1, “PROCESS FOR THE PREPARATION OF BIHETEROARYL COMPOUNDS AND CRYSTAL FORMS THEREOF” (Genentech, Inc., priority 2020, published 2023):

Legend:
[1] = Solubility of compound (1) in solvents at 0° C. and the respective maximum process temperature; type: physicochemical; conditions: for Solubility at max temp / Solubility at 0° C.: Form A
Description: Prior art processes for preparing compound (1) used isopropyl acetate for final crystallization, having a yield of 84% at a relatively low concentration of 3.0%-w/w. […] It was known from previous qualitative experimental data as well as solubility prediction (numerical simulation) that the possible list is reduced since the solubility of GDC-0134 in alcohols is too low. From a process design perspective, a simple cooling crystallization is preferred over other designs like antisolvent or evaporative crystallization especially because of easier process control. […] Mainly esters but also acetonitrile, methyl isobutyl ketone (MIBK), and 2-MeTHF were on the shortlist for precise solubility determination. The solubility of compound (1) in these solvents is Table 5 for 0° C. and the respective maximum process temperatures. […] While the solubility in acetonitrile is very low even for high temperatures, mixtures of 2-MeTHF and acetonitrile show a synergistic effect at least for a 1:1 mixture. The solubility at 70° C. is the highest among the investigated systems, and the theoretical yield is close to 90%. Due to concerns with regard to the efficient removal of acetonitrile to acceptable levels after drying, 2-MeTHF/acetonitrile-mixtures were not further investigated, though. MIBK offered the highest theoretical yield plus a significant increase in concentration compared to iPrOAc and it was selected for a more detailed investigation

[2] = Crystallization study: crystalline form by XRPD; type: physicochemical
Method: In Example 14, X-ray powder diffraction (“XRPD”), a sample of compound 1 was prepared in an open quartz glass capillary with a diameter of 0.9 mm (and was not further processed, such as by grinding). A Stoe high-low temperature attachment (working range −50 to 300) with a NiCr/Ni thermocouple for temperature measurement controlled the respective temperature conditions. The measurements were carried out with a rotating capillary and the following parameters. STOE STADI diffractometer; MYTHEN 1K detector; CuKα, 1.5406 Å radiation; Ge monochromator; 40 kV, 40 mA; moving scan; 1800 seconds per step; 2θ=3-42 degrees; 5° C./min ramp rate; and 5° C. temperature step.
Compound 1 was prepared from crude compound 1 according to the following procedure. Crude compound 1 (46 kg) was dissolved in 1080 kg of isopropyl acetate at 88.6° C. After cooling to 71° C., the solution was passed through a pre-washed and pre-heated charcoal filter. The charcoal filter was rinsed with 400 kg of hot isopropyl acetate. Under reduced pressure, the volume of the combined filtrates was concentrated to a total of 760 to 780 L. The resulting suspension was heated to 88° C. Isopropyl acetate was then added in portions (85 kg in total) to achieve complete dissolution at 88° C. The solution was cooled to 69° C. leading to a suspension which was then cooled to 0° C. within 190 minutes, and stirred at this temperature for 900 minutes. The product was isolated by filtration and rinsed with portions of cold isopropyl acetate (400 kg in total). After drying at […]/10 mbar for about 40 hours, 38.5 kg (approx. 84% of theoretical yield) of crystallized compound 1 was obtained.
Crystalline compound 1 was evaluated. Crystallization study procedures were done based on the solubility of compound 1 in the solvent under evaluation as follows.
The results are presented below in Table 10 where: * refers to compound 1 prepared as described above; and ** refers to compound 1 prepared as described above and further incubated at 100% relative humidity at 22° C. for 17 days.

## Nc1ncc(-c2cc(N3C[C@@H]4C[C@H]3CO4)nc(N3CCC(F)(F)C3)n2)cc1OC(F)F [Compound 1, 5-(6-((1S,4S)-2-oxa-5-azabicyclo[2.2.1]heptan-5-yl)-2-(3,3-difluoropyrrolidin-1-yl)pyrimidin-4-yl)-3-(difluoromethoxy)pyridin-2-amine]
[1]; previous qualitative experimental data and solubility prediction
  solubility in alcohols: too low
[1]; solvent: 2-MeTHF:MeCN (1:1), 70 ° C.
  Solubility at max temp: 7.3 w/w %
[1]; solvent: 2-MeTHF:MeCN (1:1)
  Solubility at 0° C.: 0.8 w/w %
[1]; solvent: 2-MeTHF:MeCN (3:1), 70 ° C.
  Solubility at max temp: 2.2 w/w %
[1]; solvent: 2-MeTHF:MeCN (3:1)
  Solubility at 0° C.: 1.7 w/w %
[1]; solvent: 2-MeTHF, 70 ° C.
  Solubility at max temp: 5.2 w/w %
[1]; solvent: 2-MeTHF
  Solubility at 0° C.: 1.6 w/w %
[1]; solvent: Acetonitrile, 70 ° C.
  Solubility at max temp: 1.4 w/w %
[1]; solvent: Acetonitrile
  Solubility at 0° C.: 0.5 w/w %
[1]; solvent: Ethylacetate, 70 ° C.
  Solubility at max temp: 4.8 w/w %
[1]; solvent: Ethylacetate
  Solubility at 0° C.: 0.9 w/w %
[1]; solvent: MIBK, 80 ° C.
  Solubility at max temp: 5.2 w/w %
[1]; solvent: MIBK
  Solubility at 0° C.: 0.4 w/w %
[1]; solvent: Methylacetate, 50 ° C.
  Solubility at max temp: 4.9 w/w %
[1]; solvent: Methylacetate
  Solubility at 0° C.: 1.3 w/w %
[1]; solvent: i-propyl acetate, 80 ° C.
  Solubility at max temp: 4.2 w/w %
[1]; solvent: i-propyl acetate
  Solubility at 0° C.: 0.4 w/w %
[1]; solvent: n-propyl acetate, 80 ° C.
  Solubility at max temp: 4.3 w/w %
[1]; solvent: n-propyl acetate
  Solubility at 0° C.: 0.8 w/w %
[2]; * compound 1 as prepared (crystallized from isopropyl acetate)
  Crystalline Form: Form A
[2]; ** as prepared and further incubated at 100% relative humidity at 22° C. for 17 days
  Crystalline Form: Form A
[2]; crystallization study solvent: 2-methyl THF
  Crystalline Form: Form A
[2]; crystallization study solvent: 5% water in ethanol
  Crystalline Form: Form A
[2]; crystallization study solvent: 5% water in isopropanol
  Crystalline Form: Form A
[2]; crystallization study solvent: 5% water in methanol
  Crystalline Form: Form A
[2]; crystallization study solvent: 5% water in propanol
  Crystalline Form: Form A
[2]; crystallization study solvent: 15% water in THF
  Crystalline Form: Form A
[2]; crystallization study solvent: 15% water in acetone
  Crystalline Form: Form A
[2]; crystallization study solvent: 15% water in ethanol
  Crystalline Form: Form A
[2]; crystallization study solvent: 15% water in isopropanol
  Crystalline Form: Form A
[2]; crystallization study solvent: 15% water in methanol
  Crystalline Form: Form A
[2]; crystallization study solvent: 15% water in propanol
  Crystalline Form: Form A
[2]; crystallization study solvent: 20% water in acetonitrile
  Crystalline Form: Form A
[2]; crystallization study solvent: 50% water in acetonitrile
  Crystalline Form: Form A
[2]; crystallization study solvent: 50% water in ethanol
  Crystalline Form: Form A
[2]; crystallization study solvent: 50% water in isopropanol
  Crystalline Form: Form A
[2]; crystallization study solvent: 50% water in methanol
  Crystalline Form: Form A
[2]; crystallization study solvent: 50% water in propanol
  Crystalline Form: Form A
[2]; crystallization study solvent: 80% water in acetonitrile
  Crystalline Form: Form A
[2]; crystallization study solvent: Acetic acid
  Crystalline Form: Form A
[2]; crystallization study solvent: Acetone
  Crystalline Form: Form A
[2]; crystallization study solvent: Acetonitrile
  Crystalline Form: Form A
[2]; crystallization study solvent: Butanol
  Crystalline Form: Form A
[2]; crystallization study solvent: Chloroform
  Crystalline Form: Form A
[2]; crystallization study solvent: DMA
  Crystalline Form: Form A
[2]; crystallization study solvent: DMF
  Crystalline Form: Form A
[2]; crystallization study solvent: DMSO
  Crystalline Form: Form A
[2]; crystallization study solvent: Dichloromethane
  Crystalline Form: Form A
[2]; crystallization study solvent: Diisopropylamine
  Crystalline Form: Form A
[2]; crystallization study solvent: Dimethyl carbonate
  Crystalline Form: Form A
[2]; crystallization study solvent: Dioxane
  Crystalline Form: Form A
[2]; crystallization study solvent: Ethanol
  Crystalline Form: Form A
[2]; crystallization study solvent: Ethyl acetate
  Crystalline Form: Form A
[2]; crystallization study solvent: Isopropanol
  Crystalline Form: Form A
[2]; crystallization study solvent: Isopropyl acetate
  Crystalline Form: Form A
[2]; crystallization study solvent: MEK
  Crystalline Form: Form A
[2]; crystallization study solvent: MIBK
  Crystalline Form: Form A
[2]; crystallization study solvent: MTBE
  Crystalline Form: Form A
[2]; crystallization study solvent: Methanol
  Crystalline Form: Form A
[2]; crystallization study solvent: NMP
  Crystalline Form: Form A
[2]; crystallization study solvent: Nitromethane
  Crystalline Form: Form A
[2]; crystallization study solvent: Propanol
  Crystalline Form: Form A
[2]; crystallization study solvent: THF
  Crystalline Form: Form A
[2]; crystallization study solvent: Toluene
  Crystalline Form: Form A
[2]; crystallization study solvent: Water
  Crystalline Form: Form A
[2]; crystallization study solvent: i-Butanol
  Crystalline Form: Form A
[2]; crystallization study solvent: n-Heptane
  Crystalline Form: Form A
[2]; crystallization study solvent: s-butanol
  Crystalline Form: Form A
